{
  "source": "patent US11066384B2",
  "about": "“Crystalline forms of ARN-509, preparation method and use thereof” (Crystal Pharmaceutical (Suzhou) Co., Ltd., priority 2018, dated 2021)",
  "origin": "cited, not measured here",
  "conditions": "cited from earlier work",
  "note": "Where two headings read alike, the source gives them in different places.",
  "data": [
    {"compound": "CNC(=O)c1ccc(N2C(=S)N(c3cnc(C#N)c(C(F)(F)F)c3)C(=O)C23CCC3)cc1F", "note": "[Form F, 4-[7-(6-cyano-5-trifluoromethylpyridin-3-yl)-8-oxo-6-thioxo-5,7-diazaspiro[3.4]oct-5-yl]-2-fluoro-N-methylbenzamide]", "values": [
      {"measurement": "Crystal form transformation", "setting": "ambient conditions", "result": "transform to form A"}
    ]},
    {"compound": "CNC(=O)c1ccc(N2C(=S)N(c3cnc(C#N)c(C(F)(F)F)c3)C(=O)C23CCC3)cc1F", "note": "[Form H, 4-[7-(6-cyano-5-trifluoromethylpyridin-3-yl)-8-oxo-6-thioxo-5,7-diazaspiro[3.4]oct-5-yl]-2-fluoro-N-methylbenzamide]", "values": [
      {"measurement": "Crystal form transformation", "setting": "high temperature and high humidity conditions", "result": "easily transformed into form B"}
    ]},
    {"compound": "CNC(=O)c1ccc(N2C(=S)N(c3cnc(C#N)c(C(F)(F)F)c3)C(=O)C23CCC3)cc1F", "note": "[Form I, 4-[7-(6-cyano-5-trifluoromethylpyridin-3-yl)-8-oxo-6-thioxo-5,7-diazaspiro[3.4]oct-5-yl]-2-fluoro-N-methylbenzamide]", "values": [
      {"measurement": "Crystal form transformation", "setting": "high humidity conditions", "result": "transform to form B"}
    ]}
  ]
}
